What all share (assay): biochemical
Holding throughout (format): binding

For experiment [1], the target named is T1, panel of 442 kinases (Homo sapiens, UniProt O43353).
T1 construct: purchased Ambit Biosciences (scanMAXX KINOMEscan)
To be noted: kinase RIPK2; for remaining activity at 1 µM: read-out: RIPK2 (% of control at 1 µM).

Experiment [2] deals with T2, panel of 442 kinases (Homo sapiens, UniProt P00519, F317I).
T2 construct: purchased Ambit Biosciences (scanMAXX KINOMEscan)
The note with it: for remaining activity at 1 µM: read-out: % of control at 1 µM; for remaining activity at 10 µM: read-out: % of control at 10 µM.

Experiment [3] concerns the target T3, panel of 442 kinases (Homo sapiens, UniProt P00533).
T3 construct: purchased Ambit Biosciences (scanMAXX KINOMEscan)
The note with it: EGFR; for remaining activity at 1 µM: read-out: % of control at 1 µM.

The target in experiment [4] is T4, panel of 442 kinases (Homo sapiens, UniProt P15735).
T4 construct: purchased Ambit Biosciences (scanMAXX KINOMEscan)
T4 sequence (P15735 1-406): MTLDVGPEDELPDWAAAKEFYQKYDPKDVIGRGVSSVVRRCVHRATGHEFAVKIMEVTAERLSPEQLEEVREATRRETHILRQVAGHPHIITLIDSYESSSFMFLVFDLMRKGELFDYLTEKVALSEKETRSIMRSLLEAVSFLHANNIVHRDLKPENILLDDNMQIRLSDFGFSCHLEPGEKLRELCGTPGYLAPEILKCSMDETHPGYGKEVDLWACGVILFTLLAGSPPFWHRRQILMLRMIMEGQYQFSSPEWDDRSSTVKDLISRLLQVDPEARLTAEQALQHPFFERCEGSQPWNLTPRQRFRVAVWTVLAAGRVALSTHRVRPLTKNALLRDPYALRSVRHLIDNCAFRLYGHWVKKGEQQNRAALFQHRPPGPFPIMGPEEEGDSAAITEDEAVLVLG
The note with it: kinase PHKG2; for remaining activity at 1 µM: read-out: % of control at 1 µM.

The target in experiment [5] is T5, panel of 442 kinases (Homo sapiens, UniProt P29323).
T5 construct: purchased Ambit Biosciences (scanMAXX KINOMEscan)
T5 sequence (P29323 19-1055): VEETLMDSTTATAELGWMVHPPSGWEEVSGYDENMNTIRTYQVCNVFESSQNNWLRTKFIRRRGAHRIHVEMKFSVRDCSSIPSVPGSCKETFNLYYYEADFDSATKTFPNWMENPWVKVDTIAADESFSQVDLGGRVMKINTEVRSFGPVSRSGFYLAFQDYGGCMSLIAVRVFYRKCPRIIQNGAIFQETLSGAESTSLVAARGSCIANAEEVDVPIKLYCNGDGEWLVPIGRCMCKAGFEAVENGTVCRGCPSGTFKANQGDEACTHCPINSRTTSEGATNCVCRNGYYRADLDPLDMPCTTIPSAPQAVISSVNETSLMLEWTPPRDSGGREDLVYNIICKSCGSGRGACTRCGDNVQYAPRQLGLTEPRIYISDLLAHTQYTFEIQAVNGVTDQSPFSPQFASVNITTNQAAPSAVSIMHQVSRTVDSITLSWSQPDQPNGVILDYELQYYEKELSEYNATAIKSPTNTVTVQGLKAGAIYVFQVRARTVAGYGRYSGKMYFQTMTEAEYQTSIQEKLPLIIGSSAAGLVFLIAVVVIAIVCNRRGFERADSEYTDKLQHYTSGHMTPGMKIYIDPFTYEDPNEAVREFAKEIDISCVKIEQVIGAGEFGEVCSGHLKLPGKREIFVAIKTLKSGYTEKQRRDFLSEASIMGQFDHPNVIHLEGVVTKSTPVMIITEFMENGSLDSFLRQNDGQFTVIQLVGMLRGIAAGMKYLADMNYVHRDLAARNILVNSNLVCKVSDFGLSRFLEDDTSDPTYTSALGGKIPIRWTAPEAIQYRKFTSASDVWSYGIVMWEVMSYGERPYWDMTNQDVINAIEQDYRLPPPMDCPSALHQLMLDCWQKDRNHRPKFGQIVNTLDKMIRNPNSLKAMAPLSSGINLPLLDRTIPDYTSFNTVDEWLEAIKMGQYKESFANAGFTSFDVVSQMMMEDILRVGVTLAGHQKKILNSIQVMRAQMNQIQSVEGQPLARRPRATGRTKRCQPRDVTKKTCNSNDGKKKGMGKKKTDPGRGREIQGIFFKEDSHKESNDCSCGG
The note with it: EPHB2; for remaining activity at 1 µM: read-out: % of control at 1 µM.

The target in experiment [6] is T6, panel of 442 kinases (Homo sapiens, UniProt Q13627).
T6 construct: purchased Ambit Biosciences (scanMAXX KINOMEscan)
The note with it: DYRK1A; for remaining activity at 1 µM: read-out: % of control at 1 µM.

Experiment [7] concerns the target T7, panel of 442 kinases (Homo sapiens, UniProt Q16832).
T7 construct: purchased Ambit Biosciences (scanMAXX KINOMEscan)
T7 sequence (Q16832 22-855): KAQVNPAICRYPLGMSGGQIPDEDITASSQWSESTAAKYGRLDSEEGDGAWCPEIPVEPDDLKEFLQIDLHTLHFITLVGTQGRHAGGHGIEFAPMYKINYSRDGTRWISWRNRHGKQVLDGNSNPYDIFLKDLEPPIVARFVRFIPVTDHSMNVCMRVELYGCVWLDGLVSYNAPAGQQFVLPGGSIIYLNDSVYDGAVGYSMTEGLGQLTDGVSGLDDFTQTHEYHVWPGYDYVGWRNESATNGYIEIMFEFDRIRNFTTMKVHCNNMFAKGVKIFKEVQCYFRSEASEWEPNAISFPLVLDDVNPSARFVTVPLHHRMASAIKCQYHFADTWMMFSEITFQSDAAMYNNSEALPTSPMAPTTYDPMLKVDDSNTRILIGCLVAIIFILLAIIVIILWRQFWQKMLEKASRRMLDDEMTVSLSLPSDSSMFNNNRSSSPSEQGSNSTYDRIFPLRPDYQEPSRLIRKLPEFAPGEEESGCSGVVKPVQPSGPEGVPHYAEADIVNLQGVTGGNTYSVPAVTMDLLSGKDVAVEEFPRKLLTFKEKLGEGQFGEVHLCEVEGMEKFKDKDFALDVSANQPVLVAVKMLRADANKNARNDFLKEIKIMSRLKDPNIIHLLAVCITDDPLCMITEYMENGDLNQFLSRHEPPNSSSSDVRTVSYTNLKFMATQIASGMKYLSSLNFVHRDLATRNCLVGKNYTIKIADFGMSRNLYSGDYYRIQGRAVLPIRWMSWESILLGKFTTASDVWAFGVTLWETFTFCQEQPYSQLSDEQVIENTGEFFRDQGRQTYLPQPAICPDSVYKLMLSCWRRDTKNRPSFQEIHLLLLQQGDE
The note with it: DDR2; for remaining activity at 1 µM: read-out: % of control at 1 µM.

Experiment [8] addresses T8, panel of 442 kinases (Homo sapiens, UniProt Q9NQU5).
T8 construct: purchased Ambit Biosciences (scanMAXX KINOMEscan)
The note with it: kinase PAK6; for remaining activity at 1 µM: read-out: % of control at 1 µM.

Experiment [9] has as its target T9, panel of 442 kinases (Homo sapiens, UniProt Q9NYL2).
T9 construct: purchased Ambit Biosciences (scanMAXX KINOMEscan)
To be noted: kinase ZAK; for remaining activity at 1 µM: read-out: ZAK (% of control at 1 µM).

Where [10] appears, read: 10 µM, read-out: % of control at 10 µM.

Read-outs that look alike come from different tables or passages of the source.

T2 sequence (P00519 whole entry F317I): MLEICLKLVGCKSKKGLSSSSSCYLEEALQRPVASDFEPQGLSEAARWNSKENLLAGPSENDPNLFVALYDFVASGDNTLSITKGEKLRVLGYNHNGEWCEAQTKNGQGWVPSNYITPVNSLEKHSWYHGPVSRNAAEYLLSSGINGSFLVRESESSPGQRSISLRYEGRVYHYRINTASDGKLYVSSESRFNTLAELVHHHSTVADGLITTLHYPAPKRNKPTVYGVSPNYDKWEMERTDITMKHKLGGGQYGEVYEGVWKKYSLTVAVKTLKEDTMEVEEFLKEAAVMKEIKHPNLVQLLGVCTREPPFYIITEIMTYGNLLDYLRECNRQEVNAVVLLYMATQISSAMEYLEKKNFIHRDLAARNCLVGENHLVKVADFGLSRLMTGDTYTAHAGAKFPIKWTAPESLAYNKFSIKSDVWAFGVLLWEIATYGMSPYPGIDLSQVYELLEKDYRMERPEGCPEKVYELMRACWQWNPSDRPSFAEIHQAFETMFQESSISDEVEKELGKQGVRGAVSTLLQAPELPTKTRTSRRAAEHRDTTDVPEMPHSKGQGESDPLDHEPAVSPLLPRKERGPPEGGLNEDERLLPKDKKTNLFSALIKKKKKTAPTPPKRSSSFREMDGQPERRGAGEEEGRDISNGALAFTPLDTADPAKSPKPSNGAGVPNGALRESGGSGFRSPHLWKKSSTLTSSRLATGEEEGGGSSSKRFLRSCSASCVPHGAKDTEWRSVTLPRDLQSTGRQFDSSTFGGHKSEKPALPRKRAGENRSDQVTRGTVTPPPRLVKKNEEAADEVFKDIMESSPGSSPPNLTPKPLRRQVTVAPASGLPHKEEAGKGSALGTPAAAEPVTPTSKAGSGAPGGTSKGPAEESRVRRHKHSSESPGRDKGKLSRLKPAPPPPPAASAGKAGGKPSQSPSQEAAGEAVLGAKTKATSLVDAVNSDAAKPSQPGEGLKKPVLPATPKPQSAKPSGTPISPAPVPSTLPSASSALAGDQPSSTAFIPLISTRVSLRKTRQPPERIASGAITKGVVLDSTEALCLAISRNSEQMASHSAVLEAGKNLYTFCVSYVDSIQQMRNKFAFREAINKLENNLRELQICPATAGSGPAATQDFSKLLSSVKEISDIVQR
T3 sequence (P00533 25-1210): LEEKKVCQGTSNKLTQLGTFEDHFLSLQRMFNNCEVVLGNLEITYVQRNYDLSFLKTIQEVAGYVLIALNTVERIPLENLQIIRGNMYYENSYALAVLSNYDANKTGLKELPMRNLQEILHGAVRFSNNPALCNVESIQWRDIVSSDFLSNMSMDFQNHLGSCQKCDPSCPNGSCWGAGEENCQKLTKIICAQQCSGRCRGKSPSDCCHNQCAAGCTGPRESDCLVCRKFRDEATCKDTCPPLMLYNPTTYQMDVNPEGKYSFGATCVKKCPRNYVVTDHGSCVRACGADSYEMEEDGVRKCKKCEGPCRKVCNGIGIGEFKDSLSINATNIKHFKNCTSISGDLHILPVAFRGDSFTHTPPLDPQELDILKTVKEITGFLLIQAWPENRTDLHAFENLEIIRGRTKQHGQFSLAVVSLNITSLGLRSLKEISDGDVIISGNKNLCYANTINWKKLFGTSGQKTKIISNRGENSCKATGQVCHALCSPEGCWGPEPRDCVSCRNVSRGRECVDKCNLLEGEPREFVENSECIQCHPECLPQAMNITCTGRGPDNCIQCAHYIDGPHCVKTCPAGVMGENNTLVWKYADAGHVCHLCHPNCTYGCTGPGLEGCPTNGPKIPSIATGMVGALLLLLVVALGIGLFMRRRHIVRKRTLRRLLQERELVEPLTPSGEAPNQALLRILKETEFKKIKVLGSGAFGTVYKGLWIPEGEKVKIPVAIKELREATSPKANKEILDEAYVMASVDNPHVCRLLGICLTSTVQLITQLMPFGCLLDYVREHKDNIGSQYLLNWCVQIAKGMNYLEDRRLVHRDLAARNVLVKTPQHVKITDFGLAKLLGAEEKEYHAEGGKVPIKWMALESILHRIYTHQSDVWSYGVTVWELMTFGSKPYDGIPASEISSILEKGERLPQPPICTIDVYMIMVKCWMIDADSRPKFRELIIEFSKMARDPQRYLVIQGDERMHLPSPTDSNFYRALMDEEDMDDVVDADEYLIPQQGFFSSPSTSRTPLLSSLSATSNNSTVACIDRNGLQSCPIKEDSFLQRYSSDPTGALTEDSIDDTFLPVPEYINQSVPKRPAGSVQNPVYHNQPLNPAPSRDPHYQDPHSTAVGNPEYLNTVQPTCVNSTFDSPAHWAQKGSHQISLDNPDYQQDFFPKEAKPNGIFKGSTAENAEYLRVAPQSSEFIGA
T1 sequence (O43353 whole entry): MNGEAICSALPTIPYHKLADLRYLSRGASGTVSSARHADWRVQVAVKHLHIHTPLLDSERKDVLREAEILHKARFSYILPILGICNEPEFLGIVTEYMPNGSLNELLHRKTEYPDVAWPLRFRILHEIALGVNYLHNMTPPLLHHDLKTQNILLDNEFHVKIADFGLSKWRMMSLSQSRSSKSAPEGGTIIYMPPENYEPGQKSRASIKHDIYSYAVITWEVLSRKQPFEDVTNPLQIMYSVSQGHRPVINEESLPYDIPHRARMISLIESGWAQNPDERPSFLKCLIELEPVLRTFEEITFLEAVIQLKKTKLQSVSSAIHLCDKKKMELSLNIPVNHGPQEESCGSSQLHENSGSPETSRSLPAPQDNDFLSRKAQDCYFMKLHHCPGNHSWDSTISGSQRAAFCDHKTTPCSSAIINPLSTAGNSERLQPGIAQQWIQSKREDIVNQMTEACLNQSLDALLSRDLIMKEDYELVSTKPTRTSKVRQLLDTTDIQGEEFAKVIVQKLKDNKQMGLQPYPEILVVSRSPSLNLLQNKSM
T8 sequence (Q9NQU5 whole entry): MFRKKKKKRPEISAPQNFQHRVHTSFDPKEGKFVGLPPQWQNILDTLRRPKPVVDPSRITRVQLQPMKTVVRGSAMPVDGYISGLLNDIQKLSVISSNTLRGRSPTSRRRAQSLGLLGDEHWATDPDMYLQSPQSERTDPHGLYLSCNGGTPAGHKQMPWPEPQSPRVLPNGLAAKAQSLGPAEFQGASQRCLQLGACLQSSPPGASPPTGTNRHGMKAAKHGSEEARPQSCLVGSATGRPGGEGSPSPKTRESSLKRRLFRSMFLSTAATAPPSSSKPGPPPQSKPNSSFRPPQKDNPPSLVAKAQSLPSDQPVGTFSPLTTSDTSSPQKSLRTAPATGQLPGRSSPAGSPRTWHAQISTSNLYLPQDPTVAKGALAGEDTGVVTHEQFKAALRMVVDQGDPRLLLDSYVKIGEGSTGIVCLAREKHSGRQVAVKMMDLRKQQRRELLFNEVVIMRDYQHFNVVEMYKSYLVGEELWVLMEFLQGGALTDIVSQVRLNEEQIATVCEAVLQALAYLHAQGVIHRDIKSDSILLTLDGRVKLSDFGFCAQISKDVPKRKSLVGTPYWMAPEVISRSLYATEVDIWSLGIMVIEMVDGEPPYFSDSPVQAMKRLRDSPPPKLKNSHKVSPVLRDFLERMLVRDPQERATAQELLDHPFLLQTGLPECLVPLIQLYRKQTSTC
T9 sequence (Q9NYL2 whole entry): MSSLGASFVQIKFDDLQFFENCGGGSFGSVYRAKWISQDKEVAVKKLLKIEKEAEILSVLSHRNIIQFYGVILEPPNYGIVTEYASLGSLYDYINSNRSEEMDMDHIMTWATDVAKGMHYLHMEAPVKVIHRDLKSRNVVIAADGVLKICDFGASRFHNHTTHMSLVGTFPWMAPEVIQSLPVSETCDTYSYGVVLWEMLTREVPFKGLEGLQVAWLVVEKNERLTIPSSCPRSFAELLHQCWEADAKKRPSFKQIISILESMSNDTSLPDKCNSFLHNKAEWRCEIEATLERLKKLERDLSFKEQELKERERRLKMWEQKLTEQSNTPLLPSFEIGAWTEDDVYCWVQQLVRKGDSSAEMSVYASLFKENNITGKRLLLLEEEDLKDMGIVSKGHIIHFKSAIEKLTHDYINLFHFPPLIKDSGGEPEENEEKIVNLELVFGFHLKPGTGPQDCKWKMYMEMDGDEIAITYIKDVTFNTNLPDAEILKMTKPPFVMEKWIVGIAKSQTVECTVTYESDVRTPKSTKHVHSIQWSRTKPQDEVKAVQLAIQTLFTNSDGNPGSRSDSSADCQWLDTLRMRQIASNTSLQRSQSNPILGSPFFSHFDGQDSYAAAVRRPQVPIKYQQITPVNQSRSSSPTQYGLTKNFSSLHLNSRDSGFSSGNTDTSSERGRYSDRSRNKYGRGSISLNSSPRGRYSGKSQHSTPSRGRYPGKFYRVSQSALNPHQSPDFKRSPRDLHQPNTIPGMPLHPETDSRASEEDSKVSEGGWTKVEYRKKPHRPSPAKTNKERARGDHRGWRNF

Consider `Nc1cc(C(F)(F)F)c(-c2cc(N3CCOCC3)nc(N3CCOCC3)n2)cn1` [Buparlisib], for which the remaining activity at 1 µM at panel of 442 kinases [1] amounted to 100%; at panel of 442 kinases [2] (ABL1(F317I)-nonphosphorylated), 100%; at panel of 442 kinases [2] (ABL1(F317I)-phosphorylated) it was 78%; on panel of 442 kinases [3] it was 83%; at panel of 442 kinases [4], 100%; on panel of 442 kinases [5] it was 82%. Also, the remaining activity at 1 µM on panel of 442 kinases [6] was 80%; at panel of 442 kinases [7], 96%; on panel of 442 kinases [8] it was 96%; at panel of 442 kinases [9], 85%. In addition, the remaining activity at 10 µM on panel of 442 kinases [1] (10 µM, read-out: RIPK2 (% of control at 10 µM)) was determined as 100%; on panel of 442 kinases [2] (ABL1(F317I)-nonphosphorylated), 100%; on panel of 442 kinases [2] (ABL1(F317I)-phosphorylated), 100%; at panel of 442 kinases [3] (setting [10]), 100%; at panel of 442 kinases [4] (setting [10]), 100%; at panel of 442 kinases [5] (setting [10]) it was 100%. Moreover, the remaining activity at 10 µM on panel of 442 kinases [6] (setting [10]) stood at 51%; on panel of 442 kinases [7] (setting [10]), 84%; on panel of 442 kinases [8] (setting [10]), 100%; at panel of 442 kinases [9] (10 µM, read-out: ZAK (% of control at 10 µM)), 90%.
For the compound `Cn1c(=O)n(-c2ccc(C(C)(C)C#N)cc2)c2c3cc(-c4cnc5ccccc5c4)ccc3ncc21` [Dactolisib, 2-methyl-2-[4-(3-methyl-2-oxo-8-quinolin-3-yl-2,3-dihydroimidazo[4,5-c]quinolin-1-yl)-phenyl] propionitrile], the remaining activity at 1 µM was determined as 37% on panel of 442 kinases [1]; 100% at panel of 442 kinases [2] (ABL1(F317I)-nonphosphorylated); 100% at panel of 442 kinases [2] (ABL1(F317I)-phosphorylated); 80% at panel of 442 kinases [3]; 100% at panel of 442 kinases [4]; 100% at panel of 442 kinases [5]. Besides, the remaining activity at 1 µM on panel of 442 kinases [6] came to 100%; on panel of 442 kinases [7] it was 97%; on panel of 442 kinases [8], 92%; at panel of 442 kinases [9] it was 55%.
With `COc1ncc(-c2ccc3nccc(-c4ccnnc4)c3c2)cc1NS(=O)(=O)c1ccc(F)cc1F` [Omipalisib], the remaining activity at 1 µM was determined as 59% on panel of 442 kinases [1]; 100% on panel of 442 kinases [2] (ABL1(F317I)-nonphosphorylated); 100% on panel of 442 kinases [2] (ABL1(F317I)-phosphorylated); 86% at panel of 442 kinases [3]; 100% on panel of 442 kinases [4]; 100% on panel of 442 kinases [5]. In addition, the remaining activity at 1 µM on panel of 442 kinases [6] was found to be 100%; at panel of 442 kinases [7], 100%; at panel of 442 kinases [8], 100%; at panel of 442 kinases [9], 81%.
On to `FC(F)c1nc2ccccc2n1-c1nc(N2CCOCC2)nc(N2CCOCC2)n1` [ZSTK474, 2-(difluoromethyl)-1-[4,6-di(4-morpholinyl)-1,3,5-triazin-2-yl]-1H-benzimidazole], for which the remaining activity at 1 µM on panel of 442 kinases [1] was 83%; at panel of 442 kinases [2] (ABL1(F317I)-nonphosphorylated), 100%; on panel of 442 kinases [2] (ABL1(F317I)-phosphorylated), 88%; on panel of 442 kinases [3], 94%; on panel of 442 kinases [4], 100%; at panel of 442 kinases [5] it was 94%. For the same compound, the remaining activity at 1 µM at panel of 442 kinases [6] was 100%; at panel of 442 kinases [7], 100%; on panel of 442 kinases [8], 100%; at panel of 442 kinases [9], 92%.
